Data on one compound can be found in patent publication US20220000967A1, “SYNTHETIC PEPTIDES INDUCING IMMUNOGENIC CELL DEATH” (SORBONNE UNIVERSITE, priority 2018, published 2022).

Data set [1] deals with murine PBMCs and primary cultures of bone marrow, spleen, thymus and lymph nodes. Put plainly: Selectivity on non-cancerous murine cells (Ann/PI, MTT). In kind it is cell-based. Particulars: lymph nodes of healthy BALB/c mice. How it is done: Peripheral blood was collected from 10 healthy volunteers after obtaining written informed consent. This study was approved by the Institutional Ethics Committee at the Universidad Autonoma de Nuevo Leon, College of Biological Sciences. The animal study was approved by the Animal Ethical Committee (CEIBA), Number: 01/2015. All experiments were conducted according to Mexican regulation NOM-062-ZOO-1999. The blood from sacrificed mice was obtained by cardiac puncture, while human blood was collected by venipuncture. Peripheral blood mononuclear cells (PBMCs) isolation was performed by density gradient centrifugation using Ficoll-Hypaque-1119 (Sigma-Aldrich, St Louis, Mo., USA). 4×10^5 white blood cells were washed and seeded. CD4+/CD8+ characterization was done using primary antibodies (CD4; MT310 sc-19641 and CD8; 32-M4 sc-1177, Santa Cruz, Calif., USA).
Spleen, thymus, lymphatic node, and bone marrow cells were obtained from female BALB/c mice post-sacrifice. Spleen cells were obtained through perfusion, thymocytes and lymphatic node cells were obtained by maceration, and bone morrow cells (from one femur and tibia per mouse) were flushed with PBS. Cells washed and counted using trypan blue staining.
CEM, MOLT-4 (T-acute lymphoblastic leukemia, T-ALL), and L5178Y-R (murine lymphoblastic T cell line) were obtained from ATCC. […] Data were analyzed using FlowJo software. […]

For a further data set, the system named is L5178Y-R tumor. Put plainly: Long-term memory assay, rechallenge of mice in remission after PKHB1 treatment. Type of data set: in vivo, BALB/c mice. Particulars: mice with complete regression after PKHB1-treatment, rechallenged with 2×10^6 L5178Y-R viable cells. How it is done: Six-to-eight-week-old BALB/c female mice were maintained in controlled environmental conditions (25° C. and 12h light/dark cycle) and were supplied with rodent food (Science diet) and water ad libitum. • Prophylactic vaccinations: L5178Y-R cells (1.5, 3, 5×10^6) were treated with 300 μM of PKHB1 (CC100) for 2h. Cell death was confirmed using trypan blue staining and flow cytometry. Treated cells were inoculated subcutaneously in 100 μl PBS into the left hind of the leg, whereas 2×10^6 untreated control cells were inoculated into the right hind 7 days later (42). • Tumor establishment and measurement: Tumor was established by the subcutaneous injection of 1×10^6 L5178Y-R cells in 100 μL PBS, into the left hind of the leg. Tumor volume and weight were measured three times per week using a caliper (Digimatic Caliper Mitutoyo Corporation, Japan) and a digital scale (American Weigh Scale-600-BLK, USA). When the tumor reached 100 mm^3 the first PKHB1 injection (200 μg) was applied (day 0). Tumor volume was determined with the formula: tumor volume (mm3)=[…]*A*B*C. Long-term memory assay: Mice in complete remission after PKHB1 treatment, were rechallenged with 2×10^6 cells in 100 μL of PBS, into the opposite limb, and tumor volume was measured like described above.

A further data set deals with CEM. Kind of data set: Calreticulin exposure (flow cytometry, confocal microscopy). Type of data set: cell-based, human. Conditions: CC50 of PKHB1, 2h. As for the experimental part: (§1) 1×10^6 cells/mL were plated, treated with PKHB1, and incubated for 2h. Cells were harvested, washed, and stained with Calreticulin-PE (FMC-75, Enzo Life Science, Farmingdale, N.Y., USA) antibody (1:1000) in FACS buffer. After 1h of incubation in darkness at room temperature, cells were washed and resuspended in 100Lp of FACS buffer to be assessed by flow cytometry. For confocal microscopy (OlympusX70), poly-Llysine was added 24h to sterile coverslips and 1×10^6 cells/mL were seeded. PKHB1 was added and incubated for 2h. Then, the cells were stained with Calreticulin-PE antibody (1:500) and Hoechst, incubated 1h, and assessed by confocal microscopy.

The next data set deals with MOLT-4. The data set is described as above. Type of data set: cell-based, human. Conditions: CC50 of PKHB1, 2h. How it is done:
as §1

For the compound `CSCC[C@H](NC(=O)[C@@H](NC(=O)[C@@H](NC(=O)[C@H](Cc1ccc(O)cc1)NC(=O)[C@H](Cc1ccccc1)NC(=O)[C@H](CCCNC(=N)N)NC(=O)[C@H](N)CCCCN)C(C)C)C(C)C)C(=O)N[C@@H](Cc1c[nH]c2ccccc12)C(=O)N[C@@H](CCCCN)C(=O)N[C@H](CCCCN)C(=O)O` [PKHB1, (D)K-R-F-Y-V-V-M-W-K-(D)K], the “cell viability of non-cancerous cells” value in data set [1] is “did not significantly affected cell viability”. Moreover, the “rechallenged mice that developed the tumor” value in the data set with L5178Y-R tumor is “≈ 17%”. The “survival of re-challenged mice (Kaplan-Meier)” value in the data set with L5178Y-R tumor amounted to 90%. The CRT exposure result in the data set on CEM and in the data set on MOLT-4 was “significant increase” each time.
